Assay results as given in patent EP0340307A1, “COMPOSITION OF POLYMER DIFFUSION MATRIX FOR TRANSDERMALLY INTRODUCING PHARMACEUTICAL SUBSTANCES” (priority 1987, dated 1989).
Like-named read-outs stand apart in the source and are kept apart here.

Experiment: In vitro transdermal delivery of the drug from the diffusion matrix through human cadaver skin epidermis into Ringer solution
From the text: Es wurde von uns eine Diffusionsmatrix "in vitro" untersucht, die auf der Grundlage der erfindungsgemäßen Zusammensetzung hergestellt wurde.
So wird, beispielsweise, auf eine Adhäsionsschicht einer Diffusionsmatrix mit runder Form und einem Radius von 1 cm (Fläche 3,14 cm²), die auf der Grundlage einer Zusammensetzung hergestellt wird, die 26,7 g Propranolol, 40 g Polyäthylenglykol mit einer Molekularmasse von 400 und 100 g Polyvinylpyrrolidon enthält, ein Probestück aus der Epidermis der Leichenhaut eines Menschen (mit der Außenoberfläche der Epidermis an die Diffusionsmatrix) aufgeklebt. Das Laminat der Diffusionsmatrix mit der Hautepidermis taucht man in die in einem Magnetrührer zu vermischende Ringer-Lösung ein. In den vorgegebenen Zeitabständen nimmt man aus der Lösung Proben ab, in denen man den Gehalt an Propranolol mit Hilfe der Spektrofluorometrie ermittelt, wobei die vorher aufgebauten Eichkurven genutzt werden.

With `O=[N+]([O-])OCC(CO[N+](=O)[O-])O[N+](=O)[O-]` [Nitroglyzerin] the “Geschwindigkeit des transdermalen Eintritts des Arzneistoffes aus der Matrix” value (drug contained in the named matrix, through cadaver skin) was 39 µg/cm².h.

For `CC(C)NCC(O)COc1cccc2ccccc12` (stereo not drawn) [Propranolol], the “Geschwindigkeit der transdermalen Zuführung aus einer Matrix, die einen Füllstoff enthält” value was 55 µg/cm².h and the “Geschwindigkeit des transdermalen Eintritts des Arzneistoffes aus der Matrix” value was 47 µg/cm².h.
